Measured values reported in patent publication US20230063230A1, “NURR1 RECEPTOR MODULATORS” (priority 2019, published 2023).

Experiments:
Nurr1 [1] = target: T1, Nurr1 (Homo sapiens, UniProt P43354); assay: Binding SPR
Nurr1 [2] = target: T1, Nurr1; assay: Binding MST
Vmat2 in MN9D = assay: cells; type: cell-based; settings: cpds tested at 10 μM, analogs of compound 87, read-out: qPCR MN9D Vmat2
Nurr1 in MN9D = assay: qPCR MN9D Nurr1; type: cell-based; settings: cpds tested at 10 μM, analogs of compound 87

T1 sequence (P43354 360-595 limits assumed): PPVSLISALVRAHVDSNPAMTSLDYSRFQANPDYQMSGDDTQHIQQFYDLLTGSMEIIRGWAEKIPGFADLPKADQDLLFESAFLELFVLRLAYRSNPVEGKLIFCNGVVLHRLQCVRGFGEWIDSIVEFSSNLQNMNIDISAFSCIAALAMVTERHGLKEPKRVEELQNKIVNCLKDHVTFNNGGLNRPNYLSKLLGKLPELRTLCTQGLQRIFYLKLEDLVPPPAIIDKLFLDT

Row | SMILES | Binding SPR (Nurr1 [1]; analogs of compound 87) | Binding MST (Nurr1 [2]; analogs of compound 87) | other results
1 | CC(C)(NC(=O)c1cc(Cl)cc(Cl)c1)c1cn(CCC(=O)O)nn1 [GWL 2.129, 3-(4-(2-(3,5-dichlorobenzamido)propan-2-yl)-1H-1,2,3-triazol-1-yl)propanoic acid] | + |  | 
2 | CC(C)(NC(=O)c1cc(Cl)cc(Cl)c1)c1cn(CC(=O)O)nn1 [GWL 2.131, 2-(4-(2-(3,5-dichlorobenzamido)propan-2-yl)-1H-1,2,3-triazol-1-yl)acetic acid] | + |  | 
3 | CC(C)(NC(=O)c1cc(Cl)cc(Cl)c1)c1cn(CCC(N)=O)nn1 [GWL 2.154, N-(2-(1-(3-amino-3-oxopropyl)-1H-1,2,3-triazol-4-yl)propan-2-yl)-3,5-dichlorobenzamide] | + |  | 
4 | CC(C)(NC(=O)c1cc(Cl)cc(Cl)c1)c1cn(-c2ccoc2)nn1 [GWL 3.001, 3,5-dichloro-N-(2-(1-(furan-3-yl)-1H-1,2,3-triazol-4-yl)propan-2-yl)benzamide] | + |  | 
5 | CC(C)(NC(=O)c1cc(Cl)cc(Cl)c1)c1cn(CC(N)=O)nn1 [GWL 3.008, N-(2-(1-(2-amino-2-oxoethyl)-1H-1,2,3-triazol-4-yl)propan-2-yl)-3,5-dichlorobenzamide] | + | + | 
6 | O=C(COc1ccc(Cl)c(Cl)c1)NCCc1ccc(O)c(O)c1 [SP 60, 2-(3,4-dichlorophenoxy)-N-(3,4-dihydroxyphenethyl)acetamide] |  |  | Binding SPR (Nurr1 [1]; analogs of compound 85): +; Binding MST (Nurr1 [2]; analogs of compound 85): +
7 | CCn1cc(C(C)(C)NC(=O)c2cc(Cl)cc(Cl)c2)nn1 [SP 65, 3,5-dichloro-N-(2-(1-ethyl-1H-1,2,3-triazol-4-yl)propan-2-yl)benzamide] | + | + | 
8 | O=C(COc1ccc(Cl)c(Cl)c1)NCc1ccc(O)c(O)c1 [SP 95, 2-(3,4-dichlorophenoxy)-N-(3,4-dihydroxybenzyl)acetamide] |  |  | Binding SPR (Nurr1 [1]; analogs of compound 85): +; Binding MST (Nurr1 [2]; analogs of compound 85): +
9 | CC(C)(NC(=O)c1cc(Cl)cc(Cl)c1)c1cn(Cc2ccccc2)nn1 [SP 98, N-(2-(1-benzyl-1H-1,2,3-triazol-4-yl)propan-2-yl)-3,5-dichlorobenzamide] | + | + | 
10 | CC(C)(NC(=O)c1cc(Cl)cc(Cl)c1)c1cn(CCc2ccccc2)nn1 [SP 99, 3,5-dichloro-N-(2-(1-phenethyl-1H-1,2,3-triazol-4-yl)propan-2-yl)benzamide] | + | + | 
11 | CC(C)(NC(=O)c1cc(Cl)cc(Cl)c1)c1cn(CCc2ccc(Cl)c(Cl)c2)nn1 [SP 100, 3,5-dichloro-N-(2-(1-(3,4-dichlorophenethyl)-1H-1,2,3-triazol-4-yl)propan-2-yl)benzamide] | + |  | 
12 | CC(C)(NCc1cc(Cl)cc(Cl)c1)c1cn(CCc2ccc(Cl)c(Cl)c2)nn1 [SP 136, N-(3,5-dichlorobenzyl)-2-(1-(3,4-dichlorophenethyl)-1H-1,2,3-triazol-4-yl)propan-2-amine] | + | + | 
13 | CC(C)(NC(=O)c1ccccc1)c1cn(CCc2ccc(Cl)c(Cl)c2)nn1 [SP 138, N-(2-(1-(3,4-dichlorophenethyl)-1H-1,2,3-triazol-4-yl)propan-2-yl)benzamide] | + | + | 
14 | CC(C)(NC(=O)c1ccc(Cl)c(Cl)c1)c1cn(CCc2ccc(Cl)c(Cl)c2)nn1 [SP 146, 3,4-dichloro-N-(2-(1-(3,4-dichlorophenethyl)-1H-1,2,3-triazol-4-yl)propan-2-yl)benzamide] |  |  | Binding SPR (Nurr1 [1]; analogs of compound 85): +
15 | CC(C)(NC(=O)c1cc(Cl)cc(Cl)c1)c1cn(CCc2ccc(Br)cc2)nn1 [SP 147, N-(2-(1-(4-bromophenethyl)-1H-1,2,3-triazol-4-yl)propan-2-yl)-3,5-dichlorobenzamide] | + |  | 
16 | CC(=O)SCCn1cc(C(C)(C)NC(=O)c2cc(Cl)cc(Cl)c2)nn1 [SP 151, S-2-(4-(2-(3,5-dichlorobenzamido)propan-2-yl)-1H-1,2,3-triazol-1-yl)ethyl ethanethioate] |  |  | fold induction at 10 µM (Vmat2 in MN9D): > 1.5
17 | CC(C)(NC(=O)c1cc(Cl)cc(Cl)c1)c1cnn(CCN)c1 [SP 155, N-(2-(1-(2-aminoethyl)-1H-pyrazol-4-yl)propan-2-yl)-3,5-dichlorobenzamide] | + | + | 
18 | CC(C)(NC(=O)c1cc(F)cc(F)c1)c1cn(CCS)nn1 [SP 158, 3,5-difluoro-N-(2-(1-(2-mercaptoethyl)-1H-1,2,3-triazol-4-yl)propan-2-yl)benzamide] | + | ++ | 
19 | C=CC(=O)n1cc(C(C)(C)NC(=O)c2cc(Cl)cc(Cl)c2)cn1 [SP 162, N-(2-(1-acryloyl-1H-pyrazol-4-yl)propan-2-yl)-3,5-dichlorobenzamide] |  | ++ | 
20 | CC(C)(NC(=O)c1cc(Cl)cc(Cl)c1)c1cn(CCSC(=O)c2ccccc2)nn1 [SP 164, S-2-(4-(2-(3,5-dichlorobenzamido)propan-2-yl)-1H-1,2,3-triazol-1-yl)ethyl benzothioate] | + |  | fold induction at 10 µM (Vmat2 in MN9D): > 4
21 | CC(C)(NC(=O)c1cc(Cl)cc(Cl)c1)c1cnn(COCC[Si](C)(C)C)c1 [SP 174, 3,5-dichloro-N-(2-(1-((2-(trimethylsilyl)ethoxy)methyl)-1H-pyrazol-4-yl)propan-2-yl)benzamide] | + |  | fold induction at 10 µM (Nurr1 in MN9D): > 4
22 | COc1ccc(Cn2cc(C(C)(C)NC(=O)c3cc(Cl)cc(Cl)c3)nn2)cc1 [SP 178, 3,5-dichloro-N-(2-(1-(4-methoxybenzyl)-1H-1,2,3-triazol-4-yl)propan-2-yl)benzamide] |  | + | 
23 | CSSCCn1cc(C(C)(C)NC(=O)c2cc(Cl)cc(NC(C)=O)c2)nn1 [SP 183] | + | + | 
24 | CC(=O)SCCn1cc(C(C)(C)NC(=O)c2cc(Cl)cc(Cl)c2)cn1 [SP 184, S-2-(4-(2-(3,5-dichlorobenzamido)propan-2-yl)-1H-pyrazol-1-yl)ethyl ethanethioate] |  |  | fold induction at 10 µM (Nurr1 in MN9D): > 4; fold induction at 10 µM (Vmat2 in MN9D): > 1.5
25 | COc1cc(OC)cc(C(=O)NC(C)(C)c2cn(CCS)nn2)c1 [SP 191, N-(2-(1-(2-mercaptoethyl)-1H-1,2,3-triazol-4-yl)propan-2-yl)-3,5-dimethoxybenzamide] | + | ++ | fold induction at 10 µM (Nurr1 in MN9D): > 4; fold induction at 10 µM (Vmat2 in MN9D): > 1.5
26 | COc1cc(OC)cc(C(=O)NC(C)(C)c2cn(CCSC(C)=O)nn2)c1 [SP 193, S-2-(4-(2-(3,5-dimethoxybenzamido)propan-2-yl)-1H-1,2,3-triazol-1-yl)ethyl ethanethioate] |  |  | fold induction at 10 µM (Vmat2 in MN9D): > 1.5
27 | CC(=O)SCCn1cc(C(C)(C)NC(=O)c2cnc3ccccc3c2)nn1 [SP 194, S-2-(4-(2-(quinoline-3-carboxamido)propan-2-yl)-1H-1,2,3-triazol-1-yl)ethyl ethanethioate] |  |  | fold induction at 10 µM (Nurr1 in MN9D): > 4; fold induction at 10 µM (Vmat2 in MN9D): > 1.5
28 | C=CC(=O)NNC(=O)COc1ccc(Cl)c(Cl)c1 [UNI6-001, N′-(2-(3,4-dichlorophenoxy)acetyl)acrylohydrazide] |  |  | Binding MST (Nurr1 [2]; analogs of compound 85): +
29 | C=CS(=O)(=O)NNC(=O)COc1ccc(Cl)c(Cl)c1 [UNI6-003, N′-(2-(3,4-dichlorophenoxy)acetyl)ethenesulfonohydrazide] |  |  | Binding MST (Nurr1 [2]; analogs of compound 85): +
